Experimental data published in US20080009418A1, “Selective Inhibitors” (Alchemia LTD., priority 2004, published 2008).

What was measured:
Human δ-opioid (DOP) = target: T1, Human δ-opioid (DOP) (Homo sapiens, UniProt P41143); experiment: Radioligand binding, human δ-opioid (DOP) membranes, FlashPlate, [3H]-Bremazocine; conditions: compound at 10 μM, [3H]-Bremazocine
T1 construct: purchased Perkin Elmer Biosignal
How it was run: (§1)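 Cloned human receptor membranes were coated onto FlashPlate wells and incubated with radioligand and compound (added from a 0.5 mM DMSO daughter plate) for 1 hour at room temperature in the dark. Scintillation counting gave percent inhibition, with DMSO defining total and reference ligand defining non-specific binding.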

Human κ-Opioid (KOP) = target: T2, Human κ-Opioid (KOP) (Homo sapiens, UniProt P41145); experiment: Radioligand binding, human κ-opioid (KOP) membranes, filtration, [3H]-Diprenorphine; conditions: compound at 10 μM, [3H]-Diprenorphine
T2 construct: purchased Perkin Elmer Biosignal
T2 sequence (P41145 whole entry): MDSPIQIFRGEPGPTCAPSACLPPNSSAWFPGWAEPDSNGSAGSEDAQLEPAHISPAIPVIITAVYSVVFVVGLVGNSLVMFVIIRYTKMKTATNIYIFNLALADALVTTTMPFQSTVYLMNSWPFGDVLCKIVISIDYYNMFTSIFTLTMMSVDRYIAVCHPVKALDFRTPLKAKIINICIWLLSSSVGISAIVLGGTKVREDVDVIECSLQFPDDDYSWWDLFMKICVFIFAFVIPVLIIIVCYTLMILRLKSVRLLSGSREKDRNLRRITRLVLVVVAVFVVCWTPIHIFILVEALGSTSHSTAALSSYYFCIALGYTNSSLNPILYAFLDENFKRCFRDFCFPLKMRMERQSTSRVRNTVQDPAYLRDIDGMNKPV
How it was run: (§2)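 Percent inhibition of radioligand binding measured on recombinant human membranes: NK1 with [125I]-Substance P, KOP with [3H]-Diprenorphine. Incubation 1 h at room temperature, then harvest onto 0.3% PEI-soaked filters, cold Tris-HCl pH 7.4 washes and scintillation counting; non-specific binding from reference ligand wells.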

Human Melanocortin (MC3) = target: T3, Human Melanocortin (MC3) (Homo sapiens, UniProt P41968); experiment: Radioligand binding, human melanocortin MC3 membranes, FlashPlate, [125I]-NDP-αMSH; conditions: compound at 10 μM, [125I]-NDP-αMSH
T3 construct: purchased Perkin Elmer Biosignal
T3 sequence (P41968 whole entry): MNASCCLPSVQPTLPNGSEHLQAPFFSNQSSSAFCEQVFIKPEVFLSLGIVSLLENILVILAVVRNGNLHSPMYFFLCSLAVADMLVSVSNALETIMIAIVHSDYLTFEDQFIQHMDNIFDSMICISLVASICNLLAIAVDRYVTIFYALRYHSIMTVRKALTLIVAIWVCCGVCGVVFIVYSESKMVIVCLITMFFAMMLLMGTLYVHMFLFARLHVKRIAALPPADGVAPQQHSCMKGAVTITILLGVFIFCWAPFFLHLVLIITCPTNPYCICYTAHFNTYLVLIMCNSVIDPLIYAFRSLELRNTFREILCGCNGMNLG
How it was run: as §1

Human Melanocortin (MC4) = target: T4, Human Melanocortin (MC4) (Homo sapiens, UniProt P32245); experiment: Radioligand binding, human melanocortin MC4 membranes, FlashPlate, [125I]-NDP-αMSH; conditions: compound at 10 μM, [125I]-NDP-αMSH
T4 construct: purchased Perkin Elmer Biosignal
T4 sequence (P32245 whole entry): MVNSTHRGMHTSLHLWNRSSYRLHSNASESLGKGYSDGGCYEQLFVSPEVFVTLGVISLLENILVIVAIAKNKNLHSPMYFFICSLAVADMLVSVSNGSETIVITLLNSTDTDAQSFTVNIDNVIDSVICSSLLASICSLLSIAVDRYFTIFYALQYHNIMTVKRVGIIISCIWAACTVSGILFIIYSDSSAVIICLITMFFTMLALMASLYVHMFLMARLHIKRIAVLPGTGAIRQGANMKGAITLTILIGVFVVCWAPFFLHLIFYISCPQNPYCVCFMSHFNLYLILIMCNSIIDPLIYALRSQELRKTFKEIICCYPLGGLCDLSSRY
How it was run: as §1

Human melanocortin (MC5) = target: T5, Human melanocortin (MC5) (Homo sapiens, UniProt P33032); experiment: Radioligand binding, human melanocortin MC5 membranes, FlashPlate, [125I]-NDP-αMSH; conditions: compound at 10 μM, [125I]-NDP-αMSH
T5 construct: purchased Perkin Elmer Biosignal
T5 sequence (P33032 whole entry): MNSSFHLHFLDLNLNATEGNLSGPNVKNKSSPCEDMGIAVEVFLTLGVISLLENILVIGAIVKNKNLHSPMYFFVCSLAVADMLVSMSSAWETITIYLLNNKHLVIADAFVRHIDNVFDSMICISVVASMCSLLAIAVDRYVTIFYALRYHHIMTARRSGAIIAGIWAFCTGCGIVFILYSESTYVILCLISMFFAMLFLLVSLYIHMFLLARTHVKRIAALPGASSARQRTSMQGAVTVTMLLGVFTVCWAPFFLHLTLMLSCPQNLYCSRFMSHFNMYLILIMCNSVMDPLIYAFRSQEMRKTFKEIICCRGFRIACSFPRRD
How it was run: as §1

[1] = target: T6, Human melanin-concentrating hormone (MCH1) (Homo sapiens, UniProt Q99705); experiment: Radioligand binding, human melanin-concentrating hormone MCH1 membranes, FlashPlate, [125I]-S36057; conditions: compound at 10 μM
T6 construct: purchased Perkin Elmer Biosignal
T6 sequence (Q99705 whole entry): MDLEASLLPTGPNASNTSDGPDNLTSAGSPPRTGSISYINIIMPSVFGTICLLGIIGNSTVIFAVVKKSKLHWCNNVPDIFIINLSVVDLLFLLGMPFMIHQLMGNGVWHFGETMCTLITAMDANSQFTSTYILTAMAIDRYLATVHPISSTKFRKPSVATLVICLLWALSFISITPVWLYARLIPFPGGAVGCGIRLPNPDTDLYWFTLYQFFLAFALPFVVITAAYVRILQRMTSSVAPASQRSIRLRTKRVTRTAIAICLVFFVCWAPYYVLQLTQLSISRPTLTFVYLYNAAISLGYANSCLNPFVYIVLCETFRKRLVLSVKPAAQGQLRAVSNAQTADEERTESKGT
How it was run: as §1

Human μ-opioid (MOP) = target: T7, Human μ-opioid (MOP) (Homo sapiens, UniProt P35372); experiment: Radioligand binding, human μ-opioid (MOP) membranes, FlashPlate, [3H]-Naloxone; conditions: compound at 10 μM, [3H]-Naloxone
T7 construct: purchased Perkin Elmer Biosignal
T7 sequence (P35372 whole entry): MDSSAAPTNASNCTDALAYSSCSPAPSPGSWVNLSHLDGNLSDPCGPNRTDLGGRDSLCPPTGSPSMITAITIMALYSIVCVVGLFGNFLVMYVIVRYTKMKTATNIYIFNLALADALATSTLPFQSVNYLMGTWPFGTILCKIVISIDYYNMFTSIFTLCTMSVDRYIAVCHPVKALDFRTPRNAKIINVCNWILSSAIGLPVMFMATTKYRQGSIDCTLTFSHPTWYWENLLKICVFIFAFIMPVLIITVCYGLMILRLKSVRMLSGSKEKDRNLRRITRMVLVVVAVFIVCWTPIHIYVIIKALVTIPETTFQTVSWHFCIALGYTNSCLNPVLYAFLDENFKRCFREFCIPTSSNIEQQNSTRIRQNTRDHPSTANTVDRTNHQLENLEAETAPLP
How it was run: as §1

Human neurokinin (NK1) = target: T8, Human neurokinin (NK1) (Homo sapiens, UniProt P25103); experiment: Radioligand binding, human neurokinin NK1 membranes, filtration, [125I]-Substance P; conditions: compound at 10 μM, [125I]-Substance P
T8 construct: purchased Perkin Elmer Biosignal
T8 sequence (P25103 whole entry): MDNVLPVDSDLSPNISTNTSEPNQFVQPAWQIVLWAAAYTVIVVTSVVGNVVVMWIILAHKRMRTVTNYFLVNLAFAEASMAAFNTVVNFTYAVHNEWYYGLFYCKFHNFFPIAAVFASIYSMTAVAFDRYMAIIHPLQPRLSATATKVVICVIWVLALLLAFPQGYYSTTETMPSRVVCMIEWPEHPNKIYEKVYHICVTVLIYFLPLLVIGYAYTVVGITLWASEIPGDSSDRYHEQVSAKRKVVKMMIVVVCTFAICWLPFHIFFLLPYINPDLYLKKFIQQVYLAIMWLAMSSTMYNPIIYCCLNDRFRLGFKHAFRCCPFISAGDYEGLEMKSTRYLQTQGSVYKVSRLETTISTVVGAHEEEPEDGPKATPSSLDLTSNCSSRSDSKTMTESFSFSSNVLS
How it was run: as §2

[2] = target: T9, Human neuropeptide Y (NPY-Y1) (Homo sapiens, UniProt P25929); experiment: Radioligand binding, human neuropeptide Y NPY-Y1 membranes, FlashPlate, [125I]-PYY; conditions: compound at 10 μM, [125I]-PYY
T9 construct: purchased Perkin Elmer Biosignal
T9 sequence (P25929 1-384): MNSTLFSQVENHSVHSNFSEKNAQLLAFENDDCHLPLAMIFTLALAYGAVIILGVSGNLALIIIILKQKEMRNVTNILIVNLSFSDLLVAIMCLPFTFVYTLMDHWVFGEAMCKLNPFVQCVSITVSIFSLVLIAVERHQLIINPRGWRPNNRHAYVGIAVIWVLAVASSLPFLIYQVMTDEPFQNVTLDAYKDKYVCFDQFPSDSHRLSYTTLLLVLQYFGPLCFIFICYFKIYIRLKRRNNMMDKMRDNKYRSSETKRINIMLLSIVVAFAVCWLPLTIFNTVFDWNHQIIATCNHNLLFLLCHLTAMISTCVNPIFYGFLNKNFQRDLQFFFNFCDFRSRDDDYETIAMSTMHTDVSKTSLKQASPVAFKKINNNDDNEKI
How it was run: as §1

Human opioid (ORL1) = target: T10, Human opioid (ORL1) (Homo sapiens, UniProt P41146); experiment: Radioligand binding, human opioid ORL1 membranes, FlashPlate, [125I]-Nociceptin; conditions: compound at 10 μM, [125I]-Nociceptin
T10 construct: purchased Perkin Elmer Biosignal
T10 sequence (P41146 whole entry): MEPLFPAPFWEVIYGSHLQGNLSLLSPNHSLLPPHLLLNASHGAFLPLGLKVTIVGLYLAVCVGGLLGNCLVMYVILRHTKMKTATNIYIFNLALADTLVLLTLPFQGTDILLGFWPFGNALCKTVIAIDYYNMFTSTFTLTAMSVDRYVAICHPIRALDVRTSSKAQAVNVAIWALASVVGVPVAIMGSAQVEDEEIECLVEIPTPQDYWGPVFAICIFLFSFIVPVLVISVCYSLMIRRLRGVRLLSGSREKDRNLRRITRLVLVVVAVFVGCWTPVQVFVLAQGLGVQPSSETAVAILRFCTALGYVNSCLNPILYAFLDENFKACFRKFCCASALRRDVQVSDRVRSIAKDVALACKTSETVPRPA
How it was run: as §1

Mouse urotensin (mUR2) = target: T11, Mouse urotensin (mUR2) (Mus musculus, UniProt Q8VIH9); experiment: Radioligand binding, mouse urotensin mUR2 membranes, FlashPlate, [125I]-Urotensin II; conditions: compound at 10 μM, [125I]-Urotensin II
T11 construct: purchased Perkin Elmer Biosignal
T11 sequence (Q8VIH9 1-385): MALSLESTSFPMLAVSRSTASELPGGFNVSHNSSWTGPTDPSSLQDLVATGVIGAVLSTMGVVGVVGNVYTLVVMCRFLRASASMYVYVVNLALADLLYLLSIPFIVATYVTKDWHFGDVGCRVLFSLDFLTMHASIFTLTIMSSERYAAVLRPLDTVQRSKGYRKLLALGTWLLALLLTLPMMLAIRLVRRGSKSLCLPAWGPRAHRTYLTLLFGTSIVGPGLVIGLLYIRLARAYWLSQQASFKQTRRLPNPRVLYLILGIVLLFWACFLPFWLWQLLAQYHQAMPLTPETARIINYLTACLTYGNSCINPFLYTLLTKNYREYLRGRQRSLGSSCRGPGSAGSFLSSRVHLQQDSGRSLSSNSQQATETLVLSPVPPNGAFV
How it was run: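 Cloned mouse urotensin (mUR2) receptor membranes from Perkin Elmer Biosignal were immobilized in FlashPlate microplates using a proprietary coating. Each well got 19.5 μl buffer, then 0.5 μl of DMSO, reference ligand, or compound. Adding 5 μl of [125I]-Urotensin II, diluted to 5× final concentration in binding buffer, started binding. Plates were sealed with TopSeal-A and incubated 1 hour at room temperature in the dark. Wells were counted for 30 seconds each on a TopCount after a 60-second delay, and percentage inhibition was calculated.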

T1 sequence (P41143 whole entry): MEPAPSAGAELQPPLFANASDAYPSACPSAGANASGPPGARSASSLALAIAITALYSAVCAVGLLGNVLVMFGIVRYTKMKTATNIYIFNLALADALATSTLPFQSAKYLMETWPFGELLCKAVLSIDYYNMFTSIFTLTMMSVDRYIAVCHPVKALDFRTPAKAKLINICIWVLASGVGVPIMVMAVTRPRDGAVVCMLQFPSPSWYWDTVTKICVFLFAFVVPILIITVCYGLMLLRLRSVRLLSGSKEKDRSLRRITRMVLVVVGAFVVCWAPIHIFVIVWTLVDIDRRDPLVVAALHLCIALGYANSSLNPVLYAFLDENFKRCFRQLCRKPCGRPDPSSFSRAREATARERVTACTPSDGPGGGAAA

SMILES	A1: inhibition of radioligand binding, human δ-opioid (DOP) (Human δ-opioid (DOP))	A2: inhibition of radioligand binding, human κ-opioid (KOP) (Human κ-Opioid (KOP))	A3: inhibition of radioligand binding, human melanocortin (MC3) (Human Melanocortin (MC3))	A4: inhibition of radioligand binding, human melanocortin (MC4) (Human Melanocortin (MC4))	A5: inhibition of radioligand binding, human melanocortin (MC5) (Human melanocortin (MC5))	A6: inhibition of radioligand binding, human melanin-concentrating hormone (MCH1) ([1]; [125I]-S36057)	A7: inhibition of radioligand binding, human μ-opioid (MOP) (Human μ-opioid (MOP))	A8: inhibition of radioligand binding, human neurokinin (NK1) (Human neurokinin (NK1))	A9: inhibition of radioligand binding, human neuropeptide Y (NPY-Y1) [2]	A10: inhibition of radioligand binding, human opioid (ORL1) (Human opioid (ORL1))	A11: inhibition of radioligand binding, mouse urotensin (mUR2) (Mouse urotensin (mUR2))	other results
CO[C@H]1[C@H](O)[C@@H](COCc2ccccc2)OC(OCc2ccc(Cl)cc2)[C@@H]1NC(=O)CCCN (stereo partly shown) [compound 103]	–	–	–	–	–	–	–	–	–	–	–	A1 radioligand binding, percentage inhibition (Human δ-opioid (DOP)): − (“−” indicates less than 50% inhibition at 10 μM); A2 radioligand binding, percentage inhibition (Human κ-Opioid (KOP)): − (“−” indicates less than 50% inhibition at 10 μM); A3 radioligand binding, percentage inhibition (Human Melanocortin (MC3)): − (“−” indicates less than 50% inhibition at 10 μM); A4 radioligand binding, percentage inhibition (Human Melanocortin (MC4)): − (“−” indicates less than 50% inhibition at 10 μM); A5 radioligand binding, percentage inhibition (Human melanocortin (MC5)): − (“−” indicates less than 50% inhibition at 10 μM); A6 radioligand binding, percentage inhibition ([1]; [125I]-S36057): − (“−” indicates less than 50% inhibition at 10 μM); A7 radioligand binding, percentage inhibition (Human μ-opioid (MOP)): − (“−” indicates less than 50% inhibition at 10 μM); A8 radioligand binding, percentage inhibition (Human neurokinin (NK1)): + (“+” indicates greater than 50% inhibition at 10 μM); A9 radioligand binding, percentage inhibition [2]: − (“−” indicates less than 50% inhibition at 10 μM); A10 radioligand binding, percentage inhibition (Human opioid (ORL1)): − (“−” indicates less than 50% inhibition at 10 μM); A11 radioligand binding, percentage inhibition (Mouse urotensin (mUR2)): − (“−” indicates less than 50% inhibition at 10 μM)
COC1C(O)C(COCc2ccc3ccccc3c2)OC(OCc2ccc(Cl)cc2)C1NC(=O)C1CCCN(C(=N)N)C1 (stereo not shown) [compound 348]	− (“−” indicates less than 50% inhibition at 10 μM)	− (“−” indicates less than 50% inhibition at 10 μM)	− (“−” indicates less than 50% inhibition at 10 μM)	− (“−” indicates less than 50% inhibition at 10 μM)	+ (“+” indicates greater than 50% inhibition at 10 μM)	− (“−” indicates less than 50% inhibition at 10 μM)	− (“−” indicates less than 50% inhibition at 10 μM)	+ (“+” indicates greater than 50% inhibition at 10 μM)	− (“−” indicates less than 50% inhibition at 10 μM)	− (“−” indicates less than 50% inhibition at 10 μM)	− (“−” indicates less than 50% inhibition at 10 μM)	–
NCCC(=O)NC1C(OCc2ccc(Cl)cc2)OC(COCc2ccc(Cl)cc2)C(O)C1OCc1ccccc1 (single isomer, unassigned) [compound 487]	− (“−” indicates less than 50% inhibition at 10 μM)	− (“−” indicates less than 50% inhibition at 10 μM)	− (“−” indicates less than 50% inhibition at 10 μM)	–	+ (“+” indicates greater than 50% inhibition at 10 μM)	− (“−” indicates less than 50% inhibition at 10 μM)	–	–	− (“−” indicates less than 50% inhibition at 10 μM)	–	− (“−” indicates less than 50% inhibition at 10 μM)	A4: inhibition of radioligand binding, human melanocortin (MC4) (Human Melanocortin (MC4); 10 µM): − (“−” indicates less than 50% inhibition at 10 μM); A7: inhibition of radioligand binding, human μ-opioid (MOP) (Human μ-opioid (MOP); 10 µM): + (“+” indicates greater than 50% inhibition at 10 μM); A8: inhibition of radioligand binding, human neurokinin (NK1) (Human neurokinin (NK1); 10 µM): − (“−” indicates less than 50% inhibition at 10 μM); A10: inhibition of radioligand binding, human opioid (ORL1) (Human opioid (ORL1); 10 µM): − (“−” indicates less than 50% inhibition at 10 μM)
N=C(N)NCC(=O)NC1C(OCc2ccc(Cl)cc2)OC(COCc2ccccc2)C(O)C1OCc1ccc2ccccc2c1 (stereo not shown) [compound 421]	–	–	–	–	–	–	–	–	–	–	–	A1: inhibition of radioligand binding (Human δ-opioid (DOP); human DOP membranes): − (“−” indicates less than 50% inhibition at 10 μM); A2: inhibition of radioligand binding (Human κ-Opioid (KOP); human KOP membranes): − (“−” indicates less than 50% inhibition at 10 μM); A3: inhibition of radioligand binding (Human Melanocortin (MC3); human MC3 membranes): + (“+” indicates greater than 50% inhibition at 10 μM); A4: inhibition of radioligand binding (Human Melanocortin (MC4); human MC4 membranes): + (“+” indicates greater than 50% inhibition at 10 μM); A5: inhibition of radioligand binding (Human melanocortin (MC5); human MC5 membranes): + (“+” indicates greater than 50% inhibition at 10 μM); A6: inhibition of radioligand binding ([1]; [125I]-S36057, human MCH1 membranes): + (“+” indicates greater than 50% inhibition at 10 μM); A7: inhibition of radioligand binding (Human μ-opioid (MOP); human MOP membranes): − (“−” indicates less than 50% inhibition at 10 μM); A8: inhibition of radioligand binding (Human neurokinin (NK1); human NK1 membranes): + (“+” indicates greater than 50% inhibition at 10 μM); A9: inhibition of radioligand binding ([2]; human NPY-Y1 membranes): − (“−” indicates less than 50% inhibition at 10 μM); A10: inhibition of radioligand binding (Human opioid (ORL1); human ORL1 membranes): + (“+” indicates greater than 50% inhibition at 10 μM); A11: inhibition of radioligand binding (Mouse urotensin (mUR2); mouse mUR2 membranes): − (“−” indicates less than 50% inhibition at 10 μM)
NCCCC(=O)NC1C(OCc2ccccc2)OC(COCc2ccccc2)C(O)C1OCc1ccc(Cl)cc1 (stereo not shown) [compound 373]	− (“−” indicates less than 50% inhibition at 10 μM)	− (“−” indicates less than 50% inhibition at 10 μM)	− (“−” indicates less than 50% inhibition at 10 μM)	+ (“+” indicates greater than 50% inhibition at 10 μM)	+ (“+” indicates greater than 50% inhibition at 10 μM)	− (“−” indicates less than 50% inhibition at 10 μM)	− (“−” indicates less than 50% inhibition at 10 μM)	+ (“+” indicates greater than 50% inhibition at 10 μM)	− (“−” indicates less than 50% inhibition at 10 μM)	− (“−” indicates less than 50% inhibition at 10 μM)	− (“−” indicates less than 50% inhibition at 10 μM)	–
